US20170056380A1, “Systems, Methods, Techniques, and Compounds in Research and Treatment of Portal Hypertension and other Conditions” (priority 2014, published 2017)

Molecular target: T1, eNOS (Rattus norvegicus, UniProt Q62600)
T1 construct: endogenous in cells; host or cells: primary liver sinusoidal endothelial cells from male Sprague-Dawley rats (normal or bile-duct-ligated)
T1 sequence (Q62600 1-1202): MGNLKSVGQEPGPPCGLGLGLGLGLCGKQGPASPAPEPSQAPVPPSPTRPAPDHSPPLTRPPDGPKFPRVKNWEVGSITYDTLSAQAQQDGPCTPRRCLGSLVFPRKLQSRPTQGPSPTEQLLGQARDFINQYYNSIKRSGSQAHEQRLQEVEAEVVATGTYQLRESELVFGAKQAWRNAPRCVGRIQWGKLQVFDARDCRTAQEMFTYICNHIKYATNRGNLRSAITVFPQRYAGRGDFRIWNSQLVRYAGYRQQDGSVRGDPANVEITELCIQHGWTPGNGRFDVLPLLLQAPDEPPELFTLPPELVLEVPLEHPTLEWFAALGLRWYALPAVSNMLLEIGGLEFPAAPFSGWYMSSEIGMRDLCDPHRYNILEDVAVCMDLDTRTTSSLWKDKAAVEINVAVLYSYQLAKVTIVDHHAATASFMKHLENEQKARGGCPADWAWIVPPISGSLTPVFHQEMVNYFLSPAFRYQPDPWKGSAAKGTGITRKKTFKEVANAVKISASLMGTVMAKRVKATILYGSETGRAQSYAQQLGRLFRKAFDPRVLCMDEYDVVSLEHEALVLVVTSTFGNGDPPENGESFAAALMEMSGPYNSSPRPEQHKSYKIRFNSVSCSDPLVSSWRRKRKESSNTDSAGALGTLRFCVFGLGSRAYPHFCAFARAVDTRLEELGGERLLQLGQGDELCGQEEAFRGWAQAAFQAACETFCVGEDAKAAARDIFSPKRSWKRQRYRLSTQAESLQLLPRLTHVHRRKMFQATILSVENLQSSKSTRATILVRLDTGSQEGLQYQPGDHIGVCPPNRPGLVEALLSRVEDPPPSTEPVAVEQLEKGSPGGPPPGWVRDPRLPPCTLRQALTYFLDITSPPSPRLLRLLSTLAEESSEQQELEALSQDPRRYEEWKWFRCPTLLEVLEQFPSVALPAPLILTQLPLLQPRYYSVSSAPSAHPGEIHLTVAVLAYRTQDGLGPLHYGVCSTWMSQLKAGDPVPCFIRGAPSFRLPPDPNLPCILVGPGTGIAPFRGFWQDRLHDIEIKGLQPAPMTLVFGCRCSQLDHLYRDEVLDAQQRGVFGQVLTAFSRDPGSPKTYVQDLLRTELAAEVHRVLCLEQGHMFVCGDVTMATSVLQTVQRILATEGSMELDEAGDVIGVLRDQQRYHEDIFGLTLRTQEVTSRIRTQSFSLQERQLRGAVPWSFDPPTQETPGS
Experiment: NOS activity assay (conversion of L-[3H]arginine to L-[3H]citrulline) in sinusoidal endothelial cell lysates
Format: cell-based
Method: Cell isolation and culture. Sinusoidal endothelial cells were isolated from male Sprague-Dawley rats (450-500 g) (Harlan, Indianapolis, Ind.). In brief, after in situ perfusion of the liver with 20 mg/100 mg pronase (Roche Molecular Biochemicals, Indianapolis, Ind.), followed by collagenase (Worthington Biochemical, Lakewood, N.J.), dispersed cell suspensions were removed from a layered discontinuous density gradient of 8.2 and 15.6% Accudenz (Accurate Chemical and Scientific, Westbury, N.Y.), further purified by centrifugal elutriation (18 ml/min flow), and were grown in medium containing 20% serum (10% horse/calf). The purity of endothelial cells was documented by their uptake of fluorescently labeled di-l-acetoacetylated low-density lipoprotein as described (21). Only primary sinusoidal endothelial isolates of >95% purity were used for study. Experiments were performed with cells frorrr a minimum three different isolations (for all experiments).
Animal model of liver injury and portal hypedension. Liver injury and portal hypertension were induced by performing bile duct ligation in 450- to 500-gram male retired breeder Sprague-Dawley rats as described in Liu and 20- to 25-gram male BALB/c mice. Briefly, bile duct ligation was performed by surgical isolation and ligation of the common bile duct. This model creates a portal-based fibrogenic response and portal hypertension 10-14 days after surgery (Liu). For study of injured sinusoidal endothelial cells, we used the rat model of bile duct ligation (10-14 days postsurgery); for in vivo study (primarily to conserve the use of active compound), we used the mouse model of bile duct ligation (examining portal pressure 4 wk postsurgery). In sham-operated rats or mice, laparotomy without isolation and section of the bile duct was performed. Studies were approved by the local Institutional Animal Care and Use Committees. Portal pressure measurement. Portal hypertension was induced in male BALB/c mice by bile duct ligation as above. Cicletanine (5 mg·kg^−1·day^−1) or vehicle was given by gavage as a single daily dose for 10 days before portal pressure measurement as described in Liue. In brief, mice were anesthetized, and an intravenous catheter (Becton Dickinson Vascular Access, Sandy, Utah) was introduced in the portal vein and secured with a silk tie. A calibrated low-pressure transducer (Digi-Med, Louisville, Ky.) was connected to the portal vein catheter, and portal pressure was recorded continuously using the Digi-Med Integrator 200 System (Digi-bled).
NOS activity assay. NOS activity from sinusoidal endothelial cell lysates was assessed by measuring the conversion of L-[3H]arginine to L-[3H]citrulline as described (6) per the manufacturer's instructions (Cayman Chemical). In brief, triplicate samples of cell lysates were incubated with a reaction buffer containing 3 pmol of L-[3H]arginine (45 Ci/mmol), 0-50 μM arginine, 1 mM NADPH, 100 nM calmodulin (CaM), 2 mM CaCl2, and 30 μM BH4 in a volume of 50-100 μl at room temperature for 30 min and at 37° C. for an additional 30 min in the presence and absence of 1 mM NG-nitro-L-arginine methyl ester (L-NAME). […] Radiolabeled counts per minute of generated L-citrulline were measured and used to determine L-NAME-inhibitable NOS activity (thus, each experiment included total counts and background counts). […] The reductase activities of sinusoidal endothelial cells with or without cicletanine exposure were determined using the NADPH-dependent cytochrome c assay. […]

Cc1ncc2c(c1O)COC2c1ccc(Cl)cc1 (stereo not shown) [cicletanine, 3-(4-chlorophenyl)-1,3-dihydro-7-hydroxy-6-methylfuro-(3,4-c) pyridine]
increase in eNOS activity, 6 h compared with 2 h (cicletanine 100 nM): greater at 6 h | eNOS activity above basal level at 2 and 6 h after exposure (cicletanine 100 nM, cell lysates at 2 and 6 h): consistent increases | eNOS activity (conversion of arginine to citrulline) (cicletanine 100 nM, normal sinusoidal endothelial cells): robust eNOS activity | eNOS activity (sinusoidal endothelial cells injured by bile duct ligation, 2 h): increase
